One data set concerns the target human NK1 receptor (Homo sapiens (Human), UniProt P25103). Kind of data set: Affinity for human NK1 receptor (125I-substance P receptor binding test, membrane fraction). As to conditions: membrane fraction of human NK1 receptor-expressing 293T cells; read-out: IC50 (nM), concentration required for 50% inhibition of 125I-substance P binding. The protocol: Affinity for Human NK1 Receptor
(3) Measurement of Binding Affinity to Human NK1 Receptor
(3-1) Preparation of Membrane Fraction from Human NK1 Receptor-Expressing Cells
Human NK1 receptor-expressing cells were prepared in a 175 cm^2 culture flask (Nippon Becton Dickinson). The formation of a complex of the human NK1 receptor expression plasmid and Lipofectamine 2000 was performed by calculating the culture area ratio and increasing the scale of the method described in the above 2-4 by the ratio. The human NK1 receptor-expressing cells were collected in a buffer solution for the membrane fraction preparation (50 mM Tris (Wako Pure Chemical), 120 mM sodium chloride (Wako Pure Chemical Industries), 5 mM potassium chloride (Wako Pure Chemical Industries), 1 mM ethylenediaminetetraacetic acid (Sigma), 0.002 mg/mL chymostatin (Peptide Institute), 0.04 mg/bacitracin (Wako Pure Chemical Industries), 0.005 mg/mL phosphoramidon (Peptide Institute) and 0.5 mM phenylmethylsulfonyl fluoride (Wako Pure Chemical Industries), pH7.4) and centrifuged at 1,880 g for 10 minutes, and the cell sediment was suspended in the buffer solution for the membrane fraction preparation. After freezing and thawing the cells once, the cells were homogenized using a Dounce-type homogenizer (cooled on ice, 1000 rpm, 20 times) The homogenized cell suspension was centrifuged at 20,000 rpm for 10 minutes, and the supernatant was removed to obtain cell sediment. The cell sediment was suspended again in the buffer solution for the membrane fraction preparation and homogenized using a Dounce-type homogenizer (cooled on ice, 1000 rpm, 30 times). The cell suspension was centrifuged at 20,000 rpm for 10 minutes, and the supernatant was removed to obtain cell sediment. The same homogenization and centrifugation were repeated again, and final cell sediment was obtained. The final cell sediment was suspended in a buffer solution for the receptor binding test (50 mM Tris (Wako Pure Chemical Industries). 3 mM manganese chloride (Wako Pure Chemical Industries), 0.002 mg/mL chymostatin (Peptide Institute), 0.04 mg/bacitracin (Wako Pure Chemical Industries) and 0.02% bovine serum albumin (Sigma), pH 7.4), and the protein concentration was measured using BCA Protein Assay Kit (Pierce).
(3-2) Receptor Binding Test
The buffer solution for the receptor binding test was dispensed to the wells of a 96-well assay plate (Greiner) at 22.5 μL/well. DMSO solutions of a test compound, which were prepared at an 80-time higher concentration using 100% dimethyl sulfoxide (DMSO), were added to the wells at 2.5 μL/well (final concentrations of 1 nM to 100 nM), and the solutions were mixed. As a radiolabeled ligand, ^125I-substance P (Substance P, [^125I]Tyr^8-, Perkin Elmer) was used. ^125I-substance P was diluted with the buffer solution for the receptor binding test to a concentration resulting in 125 pmol/25 μL/well and added to the 96-well assay plate, and the solutions were mixed. The membrane fraction prepared from the human NK1 receptor-expressing cells was diluted with the buffer solution for the receptor binding test to a concentration resulting in 8 to 10 μg/well, suspended until the suspension became in such a homogenous state that the suspension could flow through a 27G injection needle smoothly and then added to the 96-well assay plate at 150 μL/well. Then, the plate was incubated at room temperature for 60 minutes while shaking the plate. The reaction solutions were suction-filtered through a multiscreen 96-well filter plate (Millipore) which had been pre-treated with 0.3% polyethyleneimine, and the reaction was terminated by washing with a washing solution (50 mM Tris and 0.02% bovine serum albumin, pH 7.4) four times. The bottom of the microplate was dried at 60° C., and then 100 μL/well of MicroScint 20 (PerkinElmer) was dispensed to the wells. The top of the plate was sealed with TopSeal A (PerkinElmer), and the plate was shaken for 5 to 10 minutes. […]

The next data set has as its target human CYP3A4 (Homo sapiens (Human), UniProt P08684). Kind of data set: Inhibitory effect on CYP3A4. The format is in vitro ADME. Particulars: 30-minute pre-incubation, Luciferin-IPA substrate; read-out: IC50 (μM), CYP3A4 inhibition. Here is the method: Inhibitory Effect on CYP3A4
Enzyme reaction was performed by incubating in a potassium phosphate buffer solution (pH 7.4) containing 1 nM to 20 μM test compound, 3.2 mM magnesium chloride, 0.2 pmol human CYP3A4 (BD Biosciences), 0.5 mM reduced nicotinamide adenine dinucleotide phosphate (NADPH) and 3 μM Luciferin-IPA (Promega) at 37° C. for 10 minutes. The volume of the reaction solution was 50 μL/well. The 30-minute pre-incubation group was incubated at 37° C. for 30 minutes before adding tire substrate, the Luciferin-IPA solution (12.5 μL/well). At the end of the enzyme reaction, 50 μL/well of a Luciferin detection reagent (Promega) was added to the wells, and the plate was left at room temperature for 20 minutes. Then, the emission intensities were measured with Infinite M1000 (TECAN). The enzyme activities (%) relative to the value of the group to which the test compound was not added were calculated.

The target of a further data set is NK1 receptor (Meriones unguiculatus (Mongolian jird) (Gerbillus unguiculatus), UniProt Q5DUB1). Kind of data set: Effect on foot-tapping induced by NK1 receptor agonist GR73632. The format is in vivo. As to conditions: male gerbil, 0.1 mg/kg iv, GR73632 after four hours. The protocol:
(1) Effect on Foot-Tapping
The test compound solution was prepared by dissolving the test compound in a vehicle (a mixture of 50% N,N-dimethylacetamide (Wako Pure Chemical Industries), 30% propylene glycol (Wako Pure Chemical Industries). 4% 2-hydroxypropyl-β-cyclodextrin (Wako Pure Chemical Industries) and 16% distilled water).
(§1) A male gerbil (Japan SLC) was anesthetized with isoflurane, and 0.1 mg/kg of a test compound was administered from the jugular vein. After four hours. GR73632 (5 pmol/5 μl saline), which is an NK1 receptor agonist, was administered into the cerebral ventricle at the part 1 mm lateral to and 4.5 mm below the bregma in the head, under anesthesia with isoflurane. After the administration, the gerbil was moved to an observation cage, and the foot-tapping period during 30 minutes after the recovery of the righting reflex was measured. The foot-tapping inhibition rate (%) of each test compound was calculated by the following equation. Foot-tapping inhibition rate (%)−{1−(Fool-tapping period when test compound was administered)/(Foot-tapping period when solvent was administered)}×100 (2) Measurement of Drug Concentrations
(§2) In the table, Ex. No. means the Example number. Inhibition (%) is the loot-tapping inhibition rate, and Cone. (nM) is the drug concentration in the brain.

Data set [1] in a line: Measurement of drug concentrations in the brain after foot-tapping. The format is in vivo. As to conditions: male gerbil, 0.1 mg/kg iv, after foot-tapping was finished. Here is the method: as §1
After foot-tapping was finished, laparotomy was performed immediately under anesthesia with ether, and a blood sample was taken from the abdominal vena cava. At the same lime, the brain was extracted. Through a quantitative analysis using liquid chromatography-mass spectrometry (LC/MS), the concentrations of the test compound in the plasma and the brain were measured.
as §2

Chain of human CYP3A4 (P08684 whole entry): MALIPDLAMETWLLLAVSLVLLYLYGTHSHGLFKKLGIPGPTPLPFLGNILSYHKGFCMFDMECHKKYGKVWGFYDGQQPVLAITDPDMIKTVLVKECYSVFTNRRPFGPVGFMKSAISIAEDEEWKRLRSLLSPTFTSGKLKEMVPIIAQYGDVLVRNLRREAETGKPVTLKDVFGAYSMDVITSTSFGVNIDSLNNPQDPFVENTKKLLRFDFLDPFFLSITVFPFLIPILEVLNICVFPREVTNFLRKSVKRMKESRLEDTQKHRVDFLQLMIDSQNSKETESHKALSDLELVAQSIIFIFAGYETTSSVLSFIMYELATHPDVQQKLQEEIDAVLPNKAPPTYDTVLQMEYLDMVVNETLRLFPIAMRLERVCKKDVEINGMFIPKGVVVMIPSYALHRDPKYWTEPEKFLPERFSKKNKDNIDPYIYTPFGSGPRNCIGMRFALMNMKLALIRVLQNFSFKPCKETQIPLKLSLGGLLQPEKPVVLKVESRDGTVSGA
Chain of NK1 receptor (Q5DUB1 whole entry): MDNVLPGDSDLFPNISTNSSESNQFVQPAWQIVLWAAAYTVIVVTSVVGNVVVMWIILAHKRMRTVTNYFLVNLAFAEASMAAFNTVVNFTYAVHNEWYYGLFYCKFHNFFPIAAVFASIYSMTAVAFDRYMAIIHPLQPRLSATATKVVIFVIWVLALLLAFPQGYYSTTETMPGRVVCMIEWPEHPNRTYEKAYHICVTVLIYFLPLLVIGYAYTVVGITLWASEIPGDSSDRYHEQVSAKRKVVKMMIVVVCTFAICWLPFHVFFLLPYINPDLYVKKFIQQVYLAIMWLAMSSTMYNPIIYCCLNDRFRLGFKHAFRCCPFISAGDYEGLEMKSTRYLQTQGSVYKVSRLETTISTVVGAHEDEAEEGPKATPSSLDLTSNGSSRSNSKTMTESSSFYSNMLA
Chain of human NK1 receptor (P25103 whole entry): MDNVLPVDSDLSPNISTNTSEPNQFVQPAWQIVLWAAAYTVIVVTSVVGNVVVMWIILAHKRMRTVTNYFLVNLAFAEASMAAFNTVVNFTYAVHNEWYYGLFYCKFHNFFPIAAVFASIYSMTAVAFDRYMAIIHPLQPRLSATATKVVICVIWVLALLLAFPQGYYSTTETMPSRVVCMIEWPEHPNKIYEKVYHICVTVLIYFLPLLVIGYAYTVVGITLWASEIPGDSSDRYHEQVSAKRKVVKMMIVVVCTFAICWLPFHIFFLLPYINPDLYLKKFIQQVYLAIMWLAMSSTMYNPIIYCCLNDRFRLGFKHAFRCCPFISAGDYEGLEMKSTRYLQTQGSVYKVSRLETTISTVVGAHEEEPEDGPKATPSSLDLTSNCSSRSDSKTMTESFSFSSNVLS

Turning to `Cc1cc(F)ccc1-c1cc(C2CCC(CC(=O)O)CC2)nc(C)c1N(C)C(=O)C(C)(C)c1cc(C(F)(F)F)cc(C(F)(F)F)c1` (stereo not shown) [Example 18, {4-[5-{[2-(3,5-Bistrifluoromethylphenyl)-2-methylpropionyl]methylamino}-4-(4-fluoro-2-methylphenyl)-6-methylpyridin-2-yl]cyclohexyl}acetic Acid], the IC50 on human NK1 receptor is 6.45 nM; on human CYP3A4, 4.9 µM. The “Inhibition (%), foot-tapping inhibition rate” value at NK1 receptor was determined as 100%. The “Conc. (nM), drug concentration in the brain” value in data set [1] stood at 47 nM.

These data come from patent US10011568B2, “Cyclohexyl pyridine derivative” (priority 2014, dated 2018).
